Laboratory results published in BindingDB's records for patent US10626094 (Sanford Burnham Prebys Medical Discovery Institute, 2020).

Target: T1, Low molecular weight phosphotyrosine protein phosphatase (Homo sapiens, UniProt P24666)
T1 sequence (P24666 whole entry): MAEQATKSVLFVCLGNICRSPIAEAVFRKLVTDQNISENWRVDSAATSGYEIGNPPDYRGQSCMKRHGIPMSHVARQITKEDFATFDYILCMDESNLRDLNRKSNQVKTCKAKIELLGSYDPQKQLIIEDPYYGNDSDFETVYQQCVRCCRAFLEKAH
Assay: LMPTP Primary Screening Protocol
Procedure: 1. Prepare Reagents as described in section F. Recipe.2. Using LabCyte Echo, transfer 60 nL from 2 mM test compound source plate into assay plate Col. 5-48 (final concentration of test compounds is 20 μM). 60 nL of DMSO should be transferred to col. 1-4 for positive and negative control wells.3. Spin plates at 1000 rpm for 1 minute in centrifuge.4. Using the Beckman Coulter Bioraptr, add 3 μL/well of control buffer to columns 1 and 2.5. Using the Bioraptr, add 3 μL/well of enzyme solution to col. […] Using the Bioraptr, add 3 μL/well of substrate solution to col. 1-48.7. Spin plates at 1000 rpm for 1 minute in centrifuge.8. Incubate plates in the dark at room temperature for 50 minutes.9. Read plates on PerkinElmer Viewlux using a FI protocol.

Compound | IC50
CC(C)NC(=O)c1ccc(-c2cc(NCCCC3CCCNC3)c3ccccc3n2)cc1 (stereo not given) [N-(methylethyl)(4-{4-[(3-piperidylpropyl)amino](2-quinolyl)}phenyl)carboxamide] | 0.802 to 5 µM
O=C(c1ccc(-c2cc(NCCCC3CCCNC3)c3ccccc3n2)cc1)N1CCCC1 (stereo not given) [4-{4-[(3-piperidylpropyl)amino](2-quinolyl)}phenyl pyrrolidinyl ketone] | 0.802 to 5 µM
CCN1CCN(Cc2ccc(NC3CC(c4ccc(OC)cc4)Nc4ccccc43)cc2)CC1 (stereo not given) [US10626094, Example I206] | 0.802 to 5 µM
Clc1cccc(Cl)c1-c1cc(NCCCC2CCCNC2)c2ccccc2n1 (stereo not given) [US11220486, Compound I100] | > 5 µM
c1ccc(-c2cc(NCCN3CCOCC3)c3ccccc3n2)cc1 [(2-morpholin-4-ylethyl)(2-phenyl(4-quinolyl))amine] | 0.802 to 5 µM
